Numbers after ± are expanded uncertainties.
Columns and labels:
[1] = Liquid; for mass density: 293.1 K, 101.33 kPa, Vibrating tube method; for Normal boiling temperature: Fisher boiling point apparatus
[2] = refractive index (Na D-line) (dimensionless); settings: 293.1 K; 101.33 kPa; Liquid; Standard Abbe refractometry

SMILES | mass density [1] [kg/m3] | Normal boiling temperature [1] [°C] | refractive index [2]
CCOC(=O)CCCCC(=O)OCC [diethyl hexanedioate] | 1007.63 ± 0.24 | 245.20 ± 0.2 | 1.42725 ± 0.0007
CC(=O)O [acetic acid] | 1044.3 ± 0.27 | 118.00 ± 0.2 | 1.37201 ± 0.0007
CCOC(=O)CCCC(=O)OCC [diethyl glutarate] | 1022.04 ± 0.88 | 236.50 ± 0.2 | 1.42414 ± 0.00078
CCOC(=O)CCC(=O)OCC [diethyl butanedioate] | 1040.22 ± 0.27 | 217.70 ± 0.2 | 1.42014 ± 0.0007

Source: the NIST ThermoML archive (doi:10.1021/je7000733)
